Values quoted from earlier work, collected in US6936590B2, “C-aryl glucoside SGLT2 inhibitors and method” (Bristol Myers Squibb Company, priority 2001, dated 2005).

Legend:
human SGLT2 = target: T1, human SGLT2 (Homo sapiens, UniProt P31639); settings: read-out: Km values for uptake
T1 sequence (P31639 1-672): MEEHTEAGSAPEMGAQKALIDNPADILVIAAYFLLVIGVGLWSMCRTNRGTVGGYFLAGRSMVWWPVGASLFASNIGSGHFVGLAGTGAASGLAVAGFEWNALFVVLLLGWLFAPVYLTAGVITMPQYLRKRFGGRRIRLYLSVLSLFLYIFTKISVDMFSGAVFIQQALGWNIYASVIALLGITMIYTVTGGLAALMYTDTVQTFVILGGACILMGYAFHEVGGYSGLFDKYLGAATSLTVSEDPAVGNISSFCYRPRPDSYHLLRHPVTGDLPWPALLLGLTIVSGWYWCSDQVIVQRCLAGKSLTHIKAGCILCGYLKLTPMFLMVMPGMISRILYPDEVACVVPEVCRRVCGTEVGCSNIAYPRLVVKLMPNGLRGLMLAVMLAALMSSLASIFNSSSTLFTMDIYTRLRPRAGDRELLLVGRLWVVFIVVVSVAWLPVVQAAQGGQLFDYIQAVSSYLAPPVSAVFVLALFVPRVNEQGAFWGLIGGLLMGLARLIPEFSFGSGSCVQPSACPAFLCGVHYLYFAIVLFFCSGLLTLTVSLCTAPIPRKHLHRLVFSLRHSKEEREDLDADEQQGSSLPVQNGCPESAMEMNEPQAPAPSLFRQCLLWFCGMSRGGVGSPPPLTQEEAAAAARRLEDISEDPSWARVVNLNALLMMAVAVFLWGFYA

human SGLT1 = target: T2, human SGLT1 (Homo sapiens, UniProt P13866); settings: read-out: Km values for uptake
T2 sequence (P13866 1-664): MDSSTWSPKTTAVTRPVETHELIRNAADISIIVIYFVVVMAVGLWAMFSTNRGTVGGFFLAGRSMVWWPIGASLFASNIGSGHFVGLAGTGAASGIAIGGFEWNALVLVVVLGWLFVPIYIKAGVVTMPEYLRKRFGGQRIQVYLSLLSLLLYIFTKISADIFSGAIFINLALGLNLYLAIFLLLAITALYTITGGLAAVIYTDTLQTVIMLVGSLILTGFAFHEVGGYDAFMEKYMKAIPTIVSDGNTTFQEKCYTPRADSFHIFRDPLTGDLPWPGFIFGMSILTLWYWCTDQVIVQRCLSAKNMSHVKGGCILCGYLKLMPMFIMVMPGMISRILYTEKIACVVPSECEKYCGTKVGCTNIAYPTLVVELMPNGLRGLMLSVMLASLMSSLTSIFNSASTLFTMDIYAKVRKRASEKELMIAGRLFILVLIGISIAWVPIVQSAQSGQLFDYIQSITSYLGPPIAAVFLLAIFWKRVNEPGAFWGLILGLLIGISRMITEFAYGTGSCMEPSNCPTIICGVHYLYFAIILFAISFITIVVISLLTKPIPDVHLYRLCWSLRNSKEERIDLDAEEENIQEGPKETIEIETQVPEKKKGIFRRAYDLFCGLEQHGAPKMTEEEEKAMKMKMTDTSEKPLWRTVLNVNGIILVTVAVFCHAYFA

Row | Structure (SMILES) | Km (human SGLT2) [µM] | Km (human SGLT1) [µM] | adverse effects on plasma ion balance, renal function or renal morphology (SGLT activity; phlorizin treatment for as long as two weeks) | effect on glucose excretion and plasma glucose (SGLT activity; several diabetic rodent models and one canine diabetes model)
1 | CO[C@H]1O[C@H](CO)[C@@H](O)[C@H](O)[C@H]1O [AMG, α-methyl-D-glucopyranoside] | 1600 | 400 | – | –
2 | O=C(CCc1ccc(O)cc1)c1c(O)cc(O)cc1O[C@@H]1O[C@H](CO)[C@@H](O)[C@H](O)[C@H]1O [phlorizin] | – | – | No adverse effects on plasma ion balance, renal function or renal morphology have been observed | promoting glucose excretion, lowering fasting and fed plasma glucose, and promoting glucose utilization without hypoglycemic side effects
